We go through seven molecules from patent publication US20260191189A1, “CALCIFEROLS TO REDUCE ENVIRONMENTAL IMPACT OF RODENTICIDES” (priority 2021, published 2026).

For data set [1] the following is noted: Sprague-Dawley rats, oral administration of 3.0 mg/kg; cited from earlier work.
For data set [2] the following is noted: cited from earlier work.
A further data set has as its system rats (Rattus norvegicus). The data set is described as follows: Lab test of stop feeding effect (choice feeding test). The class given is in vivo. To be noted: 100 mg/kg of calciferol. The source says: A lab trial was set up to test the stop-feeding effect induced by calciferol-containing bait in the absence of an anticoagulant rodenticide. Three groups (Group control, Group a, and Group b) of ten rats (Rattus norvegicus) each were subjected to the experiment. The control group and Group a consisted of male rats; Group b consisted of female rats. The groups were kept in three connected pens (20 cm×60 cm) with shelter, saw-dust, water and feed ad libitum under standard laboratory conditions. The rats acclimatized in the test setup for ten days, with standard lab chew ad libitum.
The test-bait formulation was a paste-bait, based on vegetable fat and cereal flour, and contained cholecalciferol at 100 mg/kg. During the choice feeding test, the rats of both treatment groups (a and b) received the cholecalciferol-containing bait and the challenge diet (standard rat chew; Höveler, Germany) ad libitum. The control group received the same bait as the treatment groups but without cholecalciferol, and the challenge diet. Consumption of bait and challenge diet was recorded in all groups daily for 14 days. The daily bait consumption results are depicted in FIG. 1.
FIG. 1 depicts the daily consumption of bait (grams) in the laboratory study of Experiment 1, where three groups of rats (n=10 each) were given a choice between standard lab diet, and bait with or without cholecalciferol (100 mg/kg). […]

Another data set concerns rats and mice. To be noted: cited from earlier work.
The test system of the next data set is rats or mice. To be noted: in rodenticide bait, alone or combined with warfarin; cited from earlier work.

Regarding `O=c1oc2ccccc2c(O)c1[C@@H]1Cc2ccccc2[C@H](c2ccc(-c3ccc(Br)cc3)cc2)C1` (single isomer, unassigned) [cis-isomer of brodifacoum], in data set [1], the liver half-life is 120.82 h.
Consider `O=c1oc2ccccc2c(O)c1C(CC(O)c1ccc(-c2ccc(Br)cc2)cc1)c1ccccc1` (single isomer, unassigned) [cis-isomer of bromadiolone], for which the liver half-life in data set [1] is 26.89 h.
In the case of `O=c1oc2ccccc2c(O)c1[C@@H]1C[C@@H](c2ccc(OCc3ccc(C(F)(F)F)cc3)cc2)Cc2ccccc21` (single isomer, unassigned) [cis-isomer of flocoumafen], the liver half-life in data set [1] was 76.73 h.
On to `O=c1oc2ccccc2c(O)c1C1CC(c2ccc(-c3ccc(Br)cc3)cc2)Cc2ccccc21` (single isomer, unassigned) [trans-isomer of brodifacoum], for which the liver half-life in data set [1] was 68.73 h.
As for `O=c1oc2ccccc2c(O)c1C1CC(c2ccc(-c3ccc(Br)cc3)cc2)Cc2ccccc21` (stereo not shown) [brodifacoum, 3-[3-[4-(4-bromophenyl)phenyl]-1,2,3,4-tetrahydronaphthalen-1-yl]-4-hydroxychromen-2-one], the “half-life in the liver” value in data set [2] (liver) is recorded as 307.4 days. For the same molecule, the plasma half-life in data set [2] is 91.7 days.
In the case of `C=C1CC[C@H](O)C/C1=C/C=C1\CCC[C@]2(C)[C@@H]([C@H](C)/C=C/[C@H](C)C(C)C)CC[C@@H]12` [calciferol], the stop feeding effect result in the data set on rats (Rattus norvegicus) is “significant stop feeding effect within two days”. In the data set with rats and mice, the “acute oral LD50” value was 30 to 100 mg/kg. In addition, the “minimum concentration likely to give good results in the field” value in the data set with rats or mice is 0.1%.
Take `O=c1oc2ccccc2c(O)c1C1CCCc2ccccc21` (stereo not shown) [coumatetralyl, 4-Hydroxy-3-(1,2,3,4-tetrahydro-1-naphthyl) coumarin]: in data set [2], the plasma half-life was 0.52 days.
